Results reported in patent US20140213575A1, “6H-Thieno[3,2-f][1,2,4]triazolo[4,3-a][1,4]diazepines” (BAYER INTELLECTUAL PROPERTY GMBH, priority 2011, published 2014).
pIC50: −log10 of the molar value.

What was measured:
[1] = In-vivo tolerability in the mouse; design: species or system female NMRI nude mice; conditions: for MTD / MTD at 5 days: female, NMRI nude, mouse, in vivo, oral; for MTD: once daily, read-out: maximum tolerated treatment dose (MTD), single daily treatment; for MTD at 5 days: twice daily, after 5 days of treatment, read-out: maximum tolerated treatment dose (MTD), twice daily administration; for Drug-induced deaths (day): 3 animals per group; for tolerability at all doses tested: treatment once or twice daily
Protocol: The substances were formulated in NMP/PEG300 (1/9 V/V). They were administered orally, in an amount of 10 ml/kg, once or twice daily for a period of 5 to 7 days to female NMRI nude mice (6-8 weeks old; 3 animals per group). Body weight and mortality of the mice were monitored daily up to the end of the study. Toxicity was defined as follows: ≧10% substance-induced deaths or ≧20% weight loss.

[2] = Plasma concentrations from in-vivo tests and PK parameters; design: AUC(0-tlast): unit not given here; conditions: mouse; for unbound exposure in comparison with comparative example V1: after single oral administration, by AUC(0-tlast),norm,u; for AUC(0-tlast),norm,u: AUCnorm multiplied by fu; for AUC(0-tlast),norm: dose-normalized; for tlast: last time point with measurable plasma concentration; for Plasma concentration: 50 mg/kg p.o.
Protocol: After thawing and shaking, the samples are centrifuged for 20 minutes at 4° C. and approx. 2000×g. An aliquot of the supernatant (approx. 25 μL) is measured by LCMS analysis. If high plasma or tissue levels are expected (>ULOQ, as a rule 5 μM) the precipitated samples are additionally diluted 1:100 with ACN/H2O (80/20, v/v)+internal standard and corresponding aliquots are measured by LCMS. For this, the test substance is added in 5-9 concentrations, corresponding to the determination range of the analytical method, to a control matrix (calibration samples), e.g. 0, 1, 10, 100, 1000, 5000 nM. For this, a portion of solid is weighed and is dissolved in DMSO (as a rule 1 mM stock solution). This stock solution is further diluted 1:10 with DMSO ([…]). Then 1:5 (v/v) ACN+internal standard (soln. A) is added to the calibration samples and processed further as with the plasma samples. The calibration series in solvent takes place similarly to the plasma calibration described. The test substance is in this case prepared in ACN/H2O (50/50, v/v) and then 1:5 (v/v) ACN+internal standard is added to the samples. This series serves for calibration of the diluted samples. The following PK parameters are calculated from these concentration-time profiles obtained: […]
AUC(0-tlast),norm multiplied by the free fraction (fu) of the species investigated.

MDA-MB-231 cells = test: Cellular proliferation assay (alamarBlue) MDA-MB-231; format: cell-based; conditions: Homo sapiens, 96 hours, read-out: Breast MDA-MB-231 IC50
Protocol: In accordance with the invention, the ability of the substances to inhibit the proliferation of various cell lines was determined. Cell viability was determined by means of the alamarBlue® reagent (Invitrogen). […] After incubation overnight at 37° C., the fluorescence values were determined (CI values). […] Then the fluorescence values were determined (CO values).
The substances were investigated in the cell lines in Table 1, which for example represent the stated indications: […]

MOLM-13 cells = test: MOLM-13 acute monocytic leukaemia tumour model; conditions: for T/C value: day 3 to day 14, measured on day 14; for activity on tumour growth: significance P<0.05
Protocol: NMRI nude mice were inoculated subcutaneously in the right flank on day 0 with 2×10^6 MOLM-13 cells in 0.1 ml Matrigel. […] Practical example 1 and practical example 2 were dissolved in 40% PEG400, 5% ethanol, 25% Solutol. The substances were administered orally, daily for […] (day 3 to day 14). […] Practical examples 1 and 2 were applied at a daily dose of 200 (highest dose used), 120 or 70 mg/kg.

B16F10 melanoma = B16F10 melanoma tumour model
Protocol: (§1) C57BL/6 mice were inoculated on day 0 with 0.5×10^6 cells in 0.1 ml medium, subcutaneously, in the right flank. […] The substances were administered orally for 10 days (day 2 to day 11). […] Practical example 2 was applied at a dose of 160 or 120 mg/kg.

[3] = B16F10 melanoma tumour model; conditions: C57BL/6, mouse, in vivo, po
Protocol: as §1

[4] = oral 50 mg/kg, QD × 5, once daily
[5] = oral 50 mg/kg, QD × 5, twice daily
[6] = oral 100 mg/kg, QD × 5, once daily
[7] = oral 100 mg/kg, QD × 5, twice daily
[8] = oral 200 mg/kg, QD × 5, once daily

SMILES | MTD [1] | MTD at 5 days [1] | % maximum body weight change (day) [1, 4] | Remarks (tolerability) [1, 4] | Drug-induced deaths (day) [1, 4] | % maximum body weight change (day) [1, 5] | Remarks (tolerability) [1, 5] | Drug-induced deaths (day) [1, 5] | % maximum body weight change (day) [1, 6] | Remarks (tolerability) [1, 6] | Drug-induced deaths (day) [1, 6] | % maximum body weight change (day) [1, 7] | Remarks (tolerability) [1, 7] | Drug-induced deaths (day) [1, 7] | % maximum body weight change (day) [1, 8] | Remarks (tolerability) [1, 8] | Drug-induced deaths (day) [1, 8] | tolerability at all doses tested [1] | unbound exposure in comparison with comparative example V1 [2] | pIC50 (MDA-MB-231 cells) | further results
Cc1sc2c(c1C)C(c1ccc(Cl)cc1)=N[C@@H](CC(=O)N1C3CCC1CC(=O)C3)c1nnc(C)n1-2 [Example 1, 8-{2-[(S)-4-(4-Chlorophenyl)-2,3,9-trimethyl-6H-thieno[3,2-f][1,2,4]triazolo[4,3-a][1,4]diazepin-6-yl]acetyl}-8-azabicyclo[3.2.1]octan-3-one] | ≥ 200 mg/kg | ≥ 100 mg/kg | +7 (6) % | tolerated | 0/3 | +5 (4) % | tolerated | 0/3 | +6 (6) % | tolerated | 0/3 | −1 (6) % | HDT tolerated | 0/3 | +5 (6) % | HDT tolerated | 0/3 | well tolerated | higher unbound exposure | 6.96 | concentration at 1 h ([2]; in vivo, po, 100 mg/kg p.o., 1 h): 1470 ng/mL; AUC(0-tlast) ([2]; single oral dose 100 mg/kg): 4.9; AUC(0-tlast),norm,u ([2]; single oral dose 100 mg/kg): 0.006 kg·h/L; AUC(0-tlast),norm ([2]; single oral dose 100 mg/kg): 0.05 kg·h/L; tlast ([2]; single oral dose 100 mg/kg): 24 h; concentration at 3 h ([2]; plasma, po, 100 mg/kg p.o., 3 h): 836 ng/mL; concentration at 6 h ([2]; plasma, po, 100 mg/kg p.o., 6 h): 176 ng/mL; concentration at 24 h ([2]; plasma, po, 100 mg/kg p.o., 24 h): 1.56 ng/mL; T/C value (MOLM-13 cells; 70 mg/kg oral daily): 58%; activity on tumour growth (MOLM-13 cells; 70 mg/kg oral daily): inactive; T/C value (MOLM-13 cells; 120 mg/kg oral daily): 46%; activity on tumour growth (MOLM-13 cells; 120 mg/kg oral daily): showed activity; T/C value (MOLM-13 cells; 200 mg/kg oral daily): 39%; activity on tumour growth (MOLM-13 cells; 200 mg/kg oral daily): inhibited tumour growth
Cc1sc2c(c1C)C(c1ccc(Cl)cc1)=N[C@@H](CC(=O)N1CC3(COC3)C1)c1nnc(C)n1-2 [Example 2, 2-[(S)-4-(4-Chlorophenyl)-2,3,9-trimethyl-6H-thieno[3,2-f][1,2,4]triazolo[4,3-a][1,4]diazepin-6-yl]-1-(2-oxa-6-azaspiro[3.3]hept-6-yl)ethan-1-one] | ≥ 200 mg/kg | ≥ 100 mg/kg | +5 (6) % | tolerated | 0/3 | +2 (6) % | tolerated | 0/3 | −1 (3) % | tolerated | 0/3 | −3 (5) % | HDT tolerated | 0/3 | +4 (4) % | HDT tolerated | 0/3 | well tolerated | higher unbound exposure | 6.93 | Plasma concentration ([2]; 1 h): 1366.5 ng/mL; Plasma concentration ([2]; 3 h): 2694.4 ng/mL; Plasma concentration ([2]; 6 h): 1111.0 ng/mL; AUC(0-tlast) ([2]; single oral dose 50 mg/kg): 10; AUC(0-tlast),norm,u ([2]; single oral dose 50 mg/kg): 0.050 kg·h/L; AUC(0-tlast),norm ([2]; single oral dose 50 mg/kg): 0.20 kg·h/L; tlast ([2]; single oral dose 50 mg/kg): 6.0 h; T/C value (B16F10 melanoma; 120 mg/kg (MTD), oral, day 2 to day 11): 27%; weight loss (B16F10 melanoma; 120 mg/kg dose, oral, day 2 to day 11): 2%; weight loss (B16F10 melanoma; 160 mg/kg dose, oral, day 2 to day 11): 5%; mice killed because of weight loss above 20% (B16F10 melanoma; group treated with 70 mg/kg, day 10): one mouse; MTD at 10 days [3]: 120 mg/kg; T/C value (MOLM-13 cells; 70 mg/kg oral daily): 46%; activity on tumour growth (MOLM-13 cells; 70 mg/kg oral daily): not statistically significant; T/C value (MOLM-13 cells; 120 mg/kg oral daily): 46%; activity on tumour growth (MOLM-13 cells; 120 mg/kg oral daily): not statistically significant; T/C value (MOLM-13 cells; 200 mg/kg oral daily): 23%; activity on tumour growth (MOLM-13 cells; 200 mg/kg oral daily): active; deaths in the treated group (MOLM-13 cells; MOLM-13 tumour model, dose group not stated): one unexplained death
